The text below walks through data of patent US20060179492A1, “Method of inhibiting neural transmission mediated by serotonin-2a and enhancing sensorimotor gating” (The Regents of the University of California, priority 2002, published 2006).

Where a name gives a salt, the structure may show the parent alone.

The subject of series [1] is PPI deficits produced by DOI. To be noted: reported by Geyer et al.; cited from earlier work.
Another series relates to PPI. The note with it: sedating psychotropic drug without antipsychotic properties; cited from earlier work.
The subject of series [2] is PPI deficits produced by the alpha-1 adrenergic agonist cirazoline. Description: Cirazoline-induced disruption of prepulse inhibition (PPI) of the startle reflex. Type of series: in vivo, Sprague Dawley rats. To be noted: for PPI of saline/cirazoline rats versus saline/saline rats: cirazoline 0.7 mg/kg SC. The protocol:
(§1) Animals: Ninety-six male Sprague Dawley rats (250-300 grams at testing) were obtained from Harlan Laboratories, San Diego. In the experiments of Example 1, all groups contained an n of 8. Animals were housed in groups of two or three in clear plastic chambers in a climate controlled room on a 12:12 hour light/dark cycle (lights on 7:00 a.m.-7:00 p.m.). The rats were handled prior to testing. All testing occurred during the light phase of the rats' circadian illumination schedule and they were allowed free access to food and water for the extent of the study, except during the actual testing. Behavioral testing was performed between 9:00 am and 4:30 pm beginning 7 days after arrival. All studies described in this publication were carried out in accordance with the “Principles of laboratory and animal care” as described in the Guide for the Care and Use of Laboratory Animals as adopted and promulgated by the National Institutes of Health.
(§2) Drugs: PD149163 (LysΨ(CH2NH)-Lys-Pro-Trp-tLeu-Leu-OEt) was generously made available by the NIMH Chemical Synthesis and Drug Supply Program, and SR1 International, Menlo Park, Calif. NT69L (N-methyl-Arg-Lys-Pro-L-neo-Trp-tLeu-Leu) was developed at Mayo Clinic, Jacksonville, Fla., as described in Tyler-McMahon et al. 2000. DOI and cirazoline hydrochloride were obtained from Sigma Chemicals, St. Louis, Mo. All drugs used were dissolved in saline.
(§3) Startle Testing and Test Sessions. Startle testing was performed in four identical startle chambers obtained from San Diego Instruments (San Diego, Calif.). Each chamber consisted of a clear non-restrictive Plexiglass cylinder resting on a Plexiglass platform inside a ventilated and illuminated enclosure housed in a sound-attenuated room. A continuous background noise of 65 dB, as well as the various acoustic stimuli, was produced within each chamber by a high-frequency loudspeaker (Radio Shack Supertweeter, San Diego, Calif.). The whole-body startle response of each animal produced vibrations of the Plexiglass cylinder, which were transduced into analog signals by a piezoelectric unit, mounted underneath the Plexiglass platform (Mansbach et al., 1988). These analog signals were then digitized and stored by an interface unit connected to a microcomputer. Startle amplitude was defined as the degree of motion detected by the piezoelectric unit.
(§4) The animals were subjected to a 5-minute acclimation to the 65 dB background noise, which continued throughout the session. The acclimation was followed by a 15 minute PPI test session. Five trial types were presented during the test session: 40 msec 120 dB startle pulses (PULSE-ALONE), startle pulses preceded 100 msecs by 20 msec prepulses of either 4, 8, or 12 dB above background, and NO-[…] trials. All trial types were presented in pseudo-random order separated by an average of 15 seconds. In addition, four PULSE-ALONE trials that were not used in the calculation of PPI values were presented at the beginning and at the end of the test session, to habituate animals to the pulse and in order to provide a measure of habituation across the session.
PD149163 versus cirazoline. Thirty-two drug-naïve rats were administered SC injections of the following doses of PD149163, 0 (saline), 0.01, 0.1, or 1 mg/kg. Thirty minutes later, they were injected SC with either saline or cirazoline (0.7 mg/kg), a dose known to reliably disrupt PPI. Animals were tested in startle chambers thirty minutes later and PPI measured as described. […]

Another series relates to BB rats. The series is described as follows: Catalepsy bar test. Type of series: in vivo, Brattleboro rats. To be noted: 30 min after SC: haloperidol 1 mg/kg (P<0.001), clozapine 10 or 15 mg/kg, PD149163 1 or 2 mg/kg; versus saline. The method, then:
Doses selected were those that produced the greatest effect in the PPI studies. Thirty minutes after SC injections animals were tested in the using a method described by several other authors (Stanley and Glick, 1976; Costall et al., 1978; Wadenberg, 1996). This method involved placing the forepaws of each rat in an extended position over a pencil that was suspended horizontally 9 cm above the lab bench. The time spent in this position before the animal moved or corrected itself was considered a measure of catalepsy.

The test system of the next series is Brown Norway (BN) rats. Description: PPI in Brown Norway rats with low PPI. The format is in vivo. The note with it: acute administration.
Series [3] deals with PPI deficits produced by the serotonin-2A agonist DOI. Description: DOI-induced disruption of prepulse inhibition (PPI) of the startle reflex. The format is in vivo, Sprague Dawley rats. To be noted: for startle magnitude (main effect, ANOVA): NT69L versus DOI experiment. The protocol: as §1, §2, §3, §4
NT69L versus DOI. Thirty-two drug-naïve rats were administered subcutaneous (SC) injections of the following doses of NT69L, 0 (saline), 0.1, 1, or 2 mg/kg. Thirty minutes later, they were injected SC with either saline or DOI (0.5 mg/kg), a dose known to reliably disrupt PPI. Animals were tested in startle chambers thirty minutes later and PPI measured as described. After one week, animals were tested a second time during which treatment and testing procedures were the same except that rats that previously received DOI received saline and vice versa. The dose of NT69L was kept constant on both test days.
Data and Statistical Analysis. A startle response was recorded for all stimuli presentations. […]

The target of the next series is serotonin-2A receptor (Homo sapiens, UniProt P28223). The note with it: cited from earlier work.
Chain of serotonin-2A receptor (P28223 whole entry): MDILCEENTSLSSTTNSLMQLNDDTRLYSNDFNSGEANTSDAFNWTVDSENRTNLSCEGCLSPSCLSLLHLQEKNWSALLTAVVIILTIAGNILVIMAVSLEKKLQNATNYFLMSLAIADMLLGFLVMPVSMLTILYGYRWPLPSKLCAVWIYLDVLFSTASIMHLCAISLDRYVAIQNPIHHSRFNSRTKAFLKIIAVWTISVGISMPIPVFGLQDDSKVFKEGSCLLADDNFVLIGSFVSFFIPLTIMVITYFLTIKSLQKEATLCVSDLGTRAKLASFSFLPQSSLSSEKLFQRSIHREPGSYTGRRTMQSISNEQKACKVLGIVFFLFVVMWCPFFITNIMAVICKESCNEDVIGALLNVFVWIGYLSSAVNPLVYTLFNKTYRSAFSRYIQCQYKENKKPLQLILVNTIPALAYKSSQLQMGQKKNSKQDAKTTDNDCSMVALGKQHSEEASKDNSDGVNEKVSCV
Another series has as its system monoamine receptors. To be noted: cited from earlier work.
Series [4] deals with alpha-1 adrenergic receptors. To be noted: cited from earlier work.

For the molecule `Cc1nc2n(c(=O)c1CCN1CCC(c3noc4cc(F)ccc34)CC1)CCCC2` [risperidone], in series [1], the “effect on PPI deficits produced by DOI” value is “antagonize PPI deficits produced by DOI”.
For `CN1C(=O)CN=C(c2ccccc2)c2cc(Cl)ccc21` [diazepam], the “effect on PPI” value with PPI is given as “decrease rather than facilitate PPI”.
As to `COc1cccc([C@H](O)C2CCN(CCc3ccc(F)cc3)CC2)c1OC` [MDL100907], in [1], the “effect on PPI deficits produced by DOI” value is “antagonize PPI deficits produced by DOI”.
With `c1ccc(C2CC2)c(OCC2=NCCN2)c1` [cirazoline, cirazoline hydrochloride], the “PPI of saline/cirazoline rats versus saline/saline rats” value in [2] (NT69L experiment, P<0.05) was “significantly decreased PPI”; in [2] (PD149163 experiment, P<0.01) it was “significantly decreased PPI”.
Regarding `O=C(CCCN1CCC(O)(c2ccc(Cl)cc2)CC1)c1ccc(F)cc1` [haloperidol], the “catalepsy: time rats remained on the bar” value in the series with BB rats is recorded as “significantly increased the time rats remained on the bar”. Further, the “PPI in BN rats” value in the series on Brown Norway (BN) rats is recorded as “did not enhance PPI”. The “effect on PPI deficits produced by DOI” value in [1] is “do not block DOI-induced PPI deficits”.
For the molecule `O=C(c1ccc(F)cc1)C1CCN(CCn2c(=O)[nH]c3ccccc3c2=O)CC1` [ketanserin], the “effect on PPI deficits produced by DOI” value in [1] is “antagonize PPI deficits produced by DOI”.
As for `CCN1CCC[C@H]1CNC(=O)c1c(O)c(Cl)cc(Cl)c1OC` [raclopride], the “effect on PPI deficits produced by DOI” value in series [1] is “do not block DOI-induced PPI deficits”.
Take `COc1cc(CC(C)N)c(OC)cc1I.Cl` (centres unmarked) [DOI, 1-(2,5-dimethoxy-4-iodophenyl)-2-aminopropane hydrochloride]: the “PPI of saline/DOI rats versus saline/saline rats” value in series [3] (DOI 0.5 mg/kg SC, P<0.001) is given as “significantly decreased PPI”. Also, the “startle magnitude (main effect, ANOVA)” value in series [3] is reported as “no significant main effect”.
Consider `CN1CCN(C2=Nc3cc(Cl)ccc3Nc3ccccc32)CC1` [clozapine], for which, in the series with BB rats, the “catalepsy: time rats remained on the bar” value is on record as “no dose of clozapine or PD149163 significantly increased”.
For the molecule “N-methyl-Arg-Lys-Pro-L-neo-Trp-tLeu-Leu [NT69L]”, at serotonin-2A receptor, the “binding to serotonin-2A receptors” value is reported as “neither PD149163 or NT69L bind”. The “affinity for monoamine receptors” value in the series on monoamine receptors is listed as “minimal affinity”. Also, in [2] (NT69L 1 mg/kg SC 30 min before cirazoline 0.7 mg/kg SC), the “effect on cirazoline-induced PPI deficits” value is recorded as “blocked the PPI deficits produced by cirazoline”. For the same molecule, the “startle versus rats that received cirazoline and saline” value in series [2] (cirazoline + NT69L 1 mg/kg SC, P<0.05) is given as “significantly lower”. Moreover, the “startle magnitude (main effect, ANOVA)” value was “significant main effect” in series [2] (cirazoline experiments, PD149163 P<0.05, NT69L P<0.01) and “no significant main effect” in series [3]. Also, the “PPI versus rats that received DOI/saline” value in series [3] (NT69L 0.1 mg/kg SC + DOI 0.5 mg/kg SC, P<0.001) is recorded as “significantly greater than PPI exhibited by rats that received DOI/saline”; in [3] (NT69L 1 mg/kg SC + DOI 0.5 mg/kg SC, P<0.05) it was “significantly greater than PPI exhibited by rats that received DOI/saline”; in series [3] (NT69L 2 mg/kg SC + DOI 0.5 mg/kg SC, P<0.01), “significantly greater than PPI exhibited by rats that received DOI/saline”. Moreover, in series [3] (all three active doses of NT69L (0.1, 1, 2 mg/kg SC) 30 min before DOI 0.5 mg/kg SC, tested 30 min later), the “effect on DOI-induced PPI deficits” value is reported as “blocked the PPI deficits produced by DOI”. For the same molecule, the “binding to alpha-1 adrenergic receptors” value in series [4] is reported as “neither PD149163 or NT69L bind”.
For `CC(C)NCC(O)COc1cccc2ccccc12` (centres unmarked) [propanolol], the “effect on PPI deficits produced by DOI” value in [1] was “do not block DOI-induced PPI deficits”.
As to `CN1CC[C@@H]2CN3CCc4cccc(c43)[C@@H]2C1.O=C(O)/C=C/C(=O)O` [SDZ SER-082], the “effect on PPI deficits produced by DOI” value in series [1] is “do not block DOI-induced PPI deficits”.
